From ChEMBL document CHEMBL1140747, “Discovery of potent and selective dipeptidyl peptidase IV inhibitors derived from beta-aminoamides bearing subsituted triazolopiperazines” (J Med Chem, 2008)
Each block holds one compound with its values, some of them ahead of it.

Columns and labels:
[1] = Oral bioavailability in rat at 2 mg/kg; format: ADME, organism-based; conditions: in vivo
[2] = Cmax in rat at 2 mg/kg, po; format: ADME, organism-based; set-up: dose 2 mg/kg, route oral; conditions: in vivo
[3] = Half life in rat at 1 mg/kg, iv and 2 mg/kg, po; format: ADME, organism-based; conditions: in vivo
Dipeptidyl peptidase 8 = Dipeptidyl peptidase 8 (Homo sapiens, UniProt Q6V1X1); assay: Inhibition of DPP8
Sequence of Dipeptidyl peptidase 8 (Q6V1X1 whole entry): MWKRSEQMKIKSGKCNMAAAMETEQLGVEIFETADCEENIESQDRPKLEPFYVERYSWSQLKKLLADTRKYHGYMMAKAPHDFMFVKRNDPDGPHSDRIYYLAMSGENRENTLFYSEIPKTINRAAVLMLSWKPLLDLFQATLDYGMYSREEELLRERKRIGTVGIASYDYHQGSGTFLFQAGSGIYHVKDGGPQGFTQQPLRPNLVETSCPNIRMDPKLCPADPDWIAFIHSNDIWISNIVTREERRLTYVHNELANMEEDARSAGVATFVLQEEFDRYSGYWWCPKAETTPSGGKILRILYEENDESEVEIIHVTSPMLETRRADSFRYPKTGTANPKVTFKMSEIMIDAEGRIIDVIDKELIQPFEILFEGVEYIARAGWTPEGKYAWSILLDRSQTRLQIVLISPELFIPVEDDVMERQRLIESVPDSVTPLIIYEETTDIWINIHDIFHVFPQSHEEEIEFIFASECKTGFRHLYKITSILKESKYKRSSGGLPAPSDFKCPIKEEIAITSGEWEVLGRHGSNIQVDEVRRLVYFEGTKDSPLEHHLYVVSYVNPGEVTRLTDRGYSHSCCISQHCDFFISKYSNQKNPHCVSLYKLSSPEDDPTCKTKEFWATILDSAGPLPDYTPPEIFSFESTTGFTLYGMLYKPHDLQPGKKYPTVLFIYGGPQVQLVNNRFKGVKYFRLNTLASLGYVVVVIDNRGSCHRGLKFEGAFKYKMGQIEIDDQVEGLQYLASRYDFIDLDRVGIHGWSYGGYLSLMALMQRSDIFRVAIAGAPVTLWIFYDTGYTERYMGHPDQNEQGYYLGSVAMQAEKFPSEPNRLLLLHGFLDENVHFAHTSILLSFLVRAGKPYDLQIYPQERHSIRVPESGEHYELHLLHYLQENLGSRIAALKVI

Dipeptidyl peptidase 4 = Dipeptidyl peptidase 4 (Homo sapiens, UniProt P27487)
Sequence of Dipeptidyl peptidase 4 (P27487 whole entry): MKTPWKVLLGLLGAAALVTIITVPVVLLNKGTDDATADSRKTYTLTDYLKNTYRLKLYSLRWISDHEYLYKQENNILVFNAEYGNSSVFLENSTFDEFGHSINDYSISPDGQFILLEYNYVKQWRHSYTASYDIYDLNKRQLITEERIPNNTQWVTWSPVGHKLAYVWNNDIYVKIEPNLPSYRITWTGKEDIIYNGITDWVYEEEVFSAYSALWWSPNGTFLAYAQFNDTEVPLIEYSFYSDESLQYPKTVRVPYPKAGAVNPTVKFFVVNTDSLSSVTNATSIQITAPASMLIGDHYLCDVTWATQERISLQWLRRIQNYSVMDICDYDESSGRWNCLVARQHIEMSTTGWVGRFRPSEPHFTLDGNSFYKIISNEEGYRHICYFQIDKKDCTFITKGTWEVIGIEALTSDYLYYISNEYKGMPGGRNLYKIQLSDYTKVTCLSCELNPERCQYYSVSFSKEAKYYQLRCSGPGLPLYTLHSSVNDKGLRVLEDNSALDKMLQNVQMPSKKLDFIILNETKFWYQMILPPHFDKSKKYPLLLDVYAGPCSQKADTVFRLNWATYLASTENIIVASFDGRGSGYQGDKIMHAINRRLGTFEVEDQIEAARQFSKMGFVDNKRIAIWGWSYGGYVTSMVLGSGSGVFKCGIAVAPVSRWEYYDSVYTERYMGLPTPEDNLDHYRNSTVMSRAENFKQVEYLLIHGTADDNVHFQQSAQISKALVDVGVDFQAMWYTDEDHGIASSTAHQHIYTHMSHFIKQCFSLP

Xaa-Pro aminopeptidase 1 = Xaa-Pro aminopeptidase 1 (Homo sapiens, UniProt Q9NQW7); assay: Inhibition of amino peptidase P
Sequence of Xaa-Pro aminopeptidase 1 (Q9NQW7 whole entry): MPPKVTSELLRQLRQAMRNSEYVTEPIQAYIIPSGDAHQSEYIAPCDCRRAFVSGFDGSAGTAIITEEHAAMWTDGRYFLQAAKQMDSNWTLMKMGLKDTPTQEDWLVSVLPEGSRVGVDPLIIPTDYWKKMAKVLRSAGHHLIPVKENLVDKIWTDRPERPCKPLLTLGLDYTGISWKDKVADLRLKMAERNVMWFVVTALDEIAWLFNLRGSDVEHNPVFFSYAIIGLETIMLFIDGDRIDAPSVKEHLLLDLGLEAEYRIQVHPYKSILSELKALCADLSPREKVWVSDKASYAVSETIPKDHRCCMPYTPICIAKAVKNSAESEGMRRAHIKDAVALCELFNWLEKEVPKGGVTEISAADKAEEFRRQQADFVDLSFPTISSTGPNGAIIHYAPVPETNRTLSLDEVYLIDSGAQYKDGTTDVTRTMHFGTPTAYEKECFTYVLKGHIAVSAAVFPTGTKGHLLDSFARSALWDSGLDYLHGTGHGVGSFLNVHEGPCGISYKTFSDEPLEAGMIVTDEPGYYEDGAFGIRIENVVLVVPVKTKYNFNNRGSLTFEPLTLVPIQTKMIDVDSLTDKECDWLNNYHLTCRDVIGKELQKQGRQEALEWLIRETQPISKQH

Dipeptidyl peptidase 9 = Dipeptidyl peptidase 9 (Homo sapiens, UniProt Q86TI2); assay: Inhibition of DPP9
Sequence of Dipeptidyl peptidase 9 (Q86TI2 whole entry): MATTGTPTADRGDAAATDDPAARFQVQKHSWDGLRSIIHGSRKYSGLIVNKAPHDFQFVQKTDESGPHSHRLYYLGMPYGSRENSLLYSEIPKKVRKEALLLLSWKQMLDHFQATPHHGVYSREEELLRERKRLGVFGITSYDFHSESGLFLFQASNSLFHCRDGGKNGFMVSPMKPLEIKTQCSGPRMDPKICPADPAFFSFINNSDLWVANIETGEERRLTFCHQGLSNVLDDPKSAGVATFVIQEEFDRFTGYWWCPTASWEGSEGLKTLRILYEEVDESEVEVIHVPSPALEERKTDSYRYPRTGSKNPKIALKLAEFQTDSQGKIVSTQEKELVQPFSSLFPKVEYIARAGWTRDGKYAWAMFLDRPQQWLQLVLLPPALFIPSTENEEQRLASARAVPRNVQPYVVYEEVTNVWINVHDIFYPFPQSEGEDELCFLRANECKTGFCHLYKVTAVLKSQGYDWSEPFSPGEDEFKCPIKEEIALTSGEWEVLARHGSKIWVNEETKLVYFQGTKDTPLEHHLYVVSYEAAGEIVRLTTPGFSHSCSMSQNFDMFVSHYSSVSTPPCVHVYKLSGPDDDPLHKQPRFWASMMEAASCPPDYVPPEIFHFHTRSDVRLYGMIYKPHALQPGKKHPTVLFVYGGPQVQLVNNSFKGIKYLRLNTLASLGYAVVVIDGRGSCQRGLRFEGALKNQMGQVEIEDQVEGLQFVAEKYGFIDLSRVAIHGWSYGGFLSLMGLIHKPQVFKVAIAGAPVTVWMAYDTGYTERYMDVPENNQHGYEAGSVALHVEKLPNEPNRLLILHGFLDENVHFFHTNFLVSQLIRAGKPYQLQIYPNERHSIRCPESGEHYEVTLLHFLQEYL

Prolyl endopeptidase FAP = target: T1, Prolyl endopeptidase FAP (Homo sapiens, UniProt Q12884); assay: Inhibition of FAP
T1 sequence (Q12884 whole entry): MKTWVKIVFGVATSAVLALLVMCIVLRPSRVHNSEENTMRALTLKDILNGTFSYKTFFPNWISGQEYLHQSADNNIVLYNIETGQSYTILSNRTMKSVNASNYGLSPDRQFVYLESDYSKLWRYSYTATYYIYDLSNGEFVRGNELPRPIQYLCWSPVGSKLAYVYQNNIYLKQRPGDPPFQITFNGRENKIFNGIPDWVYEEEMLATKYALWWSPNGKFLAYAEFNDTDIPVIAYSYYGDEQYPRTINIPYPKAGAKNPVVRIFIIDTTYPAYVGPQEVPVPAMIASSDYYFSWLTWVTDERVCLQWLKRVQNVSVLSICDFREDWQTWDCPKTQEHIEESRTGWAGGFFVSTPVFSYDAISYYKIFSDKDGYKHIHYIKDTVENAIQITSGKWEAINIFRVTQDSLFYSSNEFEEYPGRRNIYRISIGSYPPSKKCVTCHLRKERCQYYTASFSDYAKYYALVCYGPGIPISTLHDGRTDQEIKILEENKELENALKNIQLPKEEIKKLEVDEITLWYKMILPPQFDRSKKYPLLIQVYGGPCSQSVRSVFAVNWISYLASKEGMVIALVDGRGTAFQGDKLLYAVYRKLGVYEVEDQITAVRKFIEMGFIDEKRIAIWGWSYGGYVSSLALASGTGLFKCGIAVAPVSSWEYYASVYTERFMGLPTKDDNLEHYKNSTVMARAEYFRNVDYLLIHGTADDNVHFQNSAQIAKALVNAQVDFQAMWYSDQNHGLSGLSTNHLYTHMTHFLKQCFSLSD

Xaa-Pro dipeptidase = target: T2, Xaa-Pro dipeptidase (Homo sapiens, UniProt P12955); assay: Inhibition of prolidase
T2 sequence (P12955 whole entry): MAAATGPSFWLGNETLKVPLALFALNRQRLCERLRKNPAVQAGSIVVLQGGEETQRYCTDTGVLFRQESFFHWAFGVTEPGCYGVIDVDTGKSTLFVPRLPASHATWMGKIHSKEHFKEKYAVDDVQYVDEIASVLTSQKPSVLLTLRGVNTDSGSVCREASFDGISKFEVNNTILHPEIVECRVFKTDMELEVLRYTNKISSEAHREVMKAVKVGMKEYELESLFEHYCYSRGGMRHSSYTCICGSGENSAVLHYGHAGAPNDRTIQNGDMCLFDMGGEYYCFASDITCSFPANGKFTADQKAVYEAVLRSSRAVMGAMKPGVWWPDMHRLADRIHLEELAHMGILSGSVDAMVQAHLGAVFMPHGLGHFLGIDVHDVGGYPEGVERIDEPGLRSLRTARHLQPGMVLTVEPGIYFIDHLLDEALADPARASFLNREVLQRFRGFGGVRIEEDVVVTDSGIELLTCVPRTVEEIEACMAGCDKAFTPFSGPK

[4] = Plasma clearance in rat at 1 mg/kg, iv and 2 mg/kg, po; format: ADME, organism-based
Dipeptidyl peptidase 2 = Dipeptidyl peptidase 2 (Homo sapiens, UniProt Q9UHL4); assay: Inhibition of QPP

bioavailability [1]: 9%
Cmax [2]: 16 nM
half-life [3]: 1.9 h
IC50 (Dipeptidyl peptidase 8): 5 µM
IC50 (Dipeptidyl peptidase 4): 0.0004 µM
IC50 (Xaa-Pro aminopeptidase 1): > 10 µM
IC50 (Dipeptidyl peptidase 9): > 100 µM
IC50 (Prolyl endopeptidase FAP): > 10 µM
IC50 (Xaa-Pro dipeptidase): > 10 µM
clearance [4]: 94 mL/min/kg
IC50 (Dipeptidyl peptidase 2): > 100 µM
Compound: Cl.N[C@@H](CC(=O)N1CCn2c(nnc2C(F)(F)F)C1Cc1ccccn1)Cc1cc(F)c(F)cc1F (stereo in doubt; 49b)

bioavailability [1]: 26%
Cmax [2]: 64 nM
half-life [3]: 1.4 h
IC50 (Dipeptidyl peptidase 8): 1.1 µM
IC50 (Dipeptidyl peptidase 4): 0.00046 µM
IC50 (Xaa-Pro aminopeptidase 1): > 10 µM
IC50 (Dipeptidyl peptidase 9): 39 µM
IC50 (Prolyl endopeptidase FAP): > 10 µM
IC50 (Xaa-Pro dipeptidase): > 10 µM
clearance [4]: 74 mL/min/kg
IC50 (Dipeptidyl peptidase 2): 47 µM
Compound: Cl.N[C@@H](CC(=O)N1CCn2c(nnc2C(F)(F)F)C1Cc1ccccc1F)Cc1cc(F)c(F)cc1F (stereo in doubt; 45b)

IC50 (Dipeptidyl peptidase 8): 6 µM
IC50 (Dipeptidyl peptidase 4): 0.175 µM
IC50 (Xaa-Pro aminopeptidase 1): > 10 µM
IC50 (Dipeptidyl peptidase 9): 20 µM
IC50 (Prolyl endopeptidase FAP): > 10 µM
IC50 (Xaa-Pro dipeptidase): > 10 µM
IC50 (Dipeptidyl peptidase 2): 23 µM
Compound: CC1(C)c2nnc(C(F)(F)F)n2CCN1C(=O)C[C@H](N)Cc1cc(F)c(F)cc1F

IC50 (Dipeptidyl peptidase 8): 8 µM
IC50 (Dipeptidyl peptidase 4): 0.005 µM
IC50 (Xaa-Pro aminopeptidase 1): > 10 µM
IC50 (Dipeptidyl peptidase 9): > 100 µM
IC50 (Prolyl endopeptidase FAP): > 10 µM
IC50 (Xaa-Pro dipeptidase): > 10 µM
IC50 (Dipeptidyl peptidase 2): 47 µM
Compound: CCC1c2nnc(C(F)(F)F)n2CCN1C(=O)C[C@H](N)Cc1cc(F)c(F)cc1F (stereo in doubt; 38b)

IC50 (Dipeptidyl peptidase 8): > 100 µM
IC50 (Dipeptidyl peptidase 4): 0.43 µM
IC50 (Xaa-Pro aminopeptidase 1): > 10 µM
IC50 (Dipeptidyl peptidase 9): > 100 µM
IC50 (Prolyl endopeptidase FAP): > 10 µM
IC50 (Xaa-Pro dipeptidase): > 10 µM
IC50 (Dipeptidyl peptidase 2): 48 µM
Compound: N[C@@H](CC(=O)N1CCn2c(nnc2C(F)(F)F)C1C(O)c1ccc(F)cc1)Cc1cc(F)c(F)cc1F (stereo in doubt; 47a)

IC50 (Dipeptidyl peptidase 8): 66 µM
IC50 (Dipeptidyl peptidase 4): 0.092 µM
IC50 (Xaa-Pro aminopeptidase 1): > 10 µM
IC50 (Dipeptidyl peptidase 9): 54 µM
IC50 (Prolyl endopeptidase FAP): > 10 µM
IC50 (Xaa-Pro dipeptidase): > 10 µM
IC50 (Dipeptidyl peptidase 2): 77 µM
Compound: CC1(C)CN(C(=O)C[C@H](N)Cc2cc(F)c(F)cc2F)Cc2nnc(C(F)(F)F)n21

IC50 (Dipeptidyl peptidase 8): 1.6 µM
IC50 (Dipeptidyl peptidase 4): 0.0057 µM
IC50 (Xaa-Pro aminopeptidase 1): > 10 µM
IC50 (Dipeptidyl peptidase 9): 26 µM
IC50 (Prolyl endopeptidase FAP): > 10 µM
IC50 (Xaa-Pro dipeptidase): > 10 µM
IC50 (Dipeptidyl peptidase 2): 60 µM
Compound: N[C@@H](CC(=O)N1CCn2c(nnc2C(F)(F)F)C1CC(F)(F)F)Cc1cc(F)c(F)cc1F (stereo in doubt; 39b)

IC50 (Dipeptidyl peptidase 8): 3 µM
IC50 (Dipeptidyl peptidase 4): 0.0015 µM
IC50 (Xaa-Pro aminopeptidase 1): > 10 µM
IC50 (Dipeptidyl peptidase 9): 41 µM
IC50 (Prolyl endopeptidase FAP): > 10 µM
IC50 (Xaa-Pro dipeptidase): > 10 µM
IC50 (Dipeptidyl peptidase 2): 33 µM
Compound: C=CCC1c2nnc(C(F)(F)F)n2CCN1C(=O)C[C@H](N)Cc1cc(F)c(F)cc1F (stereo in doubt; 40a)

IC50 (Dipeptidyl peptidase 8): > 100 µM
IC50 (Dipeptidyl peptidase 4): 0.091 µM
IC50 (Xaa-Pro aminopeptidase 1): > 10 µM
IC50 (Dipeptidyl peptidase 9): 53 µM
IC50 (Prolyl endopeptidase FAP): > 10 µM
IC50 (Xaa-Pro dipeptidase): > 10 µM
IC50 (Dipeptidyl peptidase 2): 74 µM
Compound: C[C@H]1Cn2c(nnc2C(F)(F)F)CN1C(=O)C[C@H](N)Cc1cc(F)c(F)cc1F

The remaining lines, values behind:

Compound: C[C@@H]1CN(C(=O)C[C@H](N)Cc2cc(F)c(F)cc2F)Cc2ccc(C(F)(F)F)n21.Cl
bioavailability [1]: 35%
half-life [3]: 1.9 h
IC50 (Dipeptidyl peptidase 8): 33 µM
IC50 (Dipeptidyl peptidase 4): 0.014 µM
IC50 (Xaa-Pro aminopeptidase 1): > 10 µM
IC50 (Dipeptidyl peptidase 9): 53 µM
IC50 (Prolyl endopeptidase FAP): > 10 µM
IC50 (Xaa-Pro dipeptidase): > 10 µM
clearance [4]: 154 mL/min/kg
IC50 (Dipeptidyl peptidase 2): > 100 µM

Compound: Cl.N[C@@H](CC(=O)N1CCn2c(nnc2C(F)(F)F)C1C(O)c1ccc(F)cc1)Cc1cc(F)c(F)cc1F (stereo in doubt; 47b)
bioavailability [1]: 8%
Cmax [2]: 20 nM
half-life [3]: 2.6 h
IC50 (Dipeptidyl peptidase 8): 0.326 µM
IC50 (Dipeptidyl peptidase 4): 0.00032 µM
IC50 (Xaa-Pro aminopeptidase 1): > 10 µM
IC50 (Dipeptidyl peptidase 9): 89 µM
IC50 (Prolyl endopeptidase FAP): > 10 µM
IC50 (Xaa-Pro dipeptidase): > 10 µM
clearance [4]: 63 mL/min/kg
IC50 (Dipeptidyl peptidase 2): 36 µM

Compound: Cl.N[C@@H](CC(=O)N1CCn2c(nnc2C(F)(F)F)C1Cc1cc(C(F)(F)F)cc(C(F)(F)F)c1)Cc1cc(F)c(F)cc1F (stereo in doubt; 48b)
bioavailability [1]: 19%
Cmax [2]: 42 nM
half-life [3]: 4.1 h
IC50 (Dipeptidyl peptidase 8): > 100 µM
IC50 (Dipeptidyl peptidase 4): 0.0063 µM
IC50 (Xaa-Pro aminopeptidase 1): > 10 µM
IC50 (Dipeptidyl peptidase 9): > 100 µM
IC50 (Prolyl endopeptidase FAP): > 10 µM
IC50 (Xaa-Pro dipeptidase): > 10 µM
clearance [4]: 50 mL/min/kg
IC50 (Dipeptidyl peptidase 2): > 100 µM

Compound: C[C@@H]1c2nnc(C(F)(F)F)n2[C@H](C)CN1C(=O)C[C@H](N)Cc1cc(F)c(F)cc1F.Cl
bioavailability [1]: 45%
Cmax [2]: 92 nM
half-life [3]: 2.1 h
IC50 (Dipeptidyl peptidase 8): 70 µM
IC50 (Dipeptidyl peptidase 4): 0.012 µM
IC50 (Xaa-Pro aminopeptidase 1): > 10 µM
IC50 (Dipeptidyl peptidase 9): 52 µM
IC50 (Prolyl endopeptidase FAP): > 10 µM
IC50 (Xaa-Pro dipeptidase): > 10 µM
clearance [4]: 85 mL/min/kg
IC50 (Dipeptidyl peptidase 2): > 100 µM

Compound: N[C@@H](CC(=O)N1CCn2c(nnc2C(F)(F)F)C1Cc1ccccc1C(F)(F)F)Cc1cc(F)c(F)cc1F (stereo in doubt; 44a)
IC50 (Dipeptidyl peptidase 8): > 100 µM
IC50 (Dipeptidyl peptidase 4): 0.438 µM
IC50 (Xaa-Pro aminopeptidase 1): > 10 µM
IC50 (Dipeptidyl peptidase 9): > 100 µM
IC50 (Prolyl endopeptidase FAP): > 10 µM
IC50 (Xaa-Pro dipeptidase): > 10 µM
IC50 (Dipeptidyl peptidase 2): 83 µM

Compound: C[C@H]1CN(C(=O)C[C@H](N)Cc2cc(F)c(F)cc2F)Cc2ccc(C(F)(F)F)n21
IC50 (Dipeptidyl peptidase 8): 23 µM
IC50 (Dipeptidyl peptidase 4): 0.023 µM
IC50 (Xaa-Pro aminopeptidase 1): > 10 µM
IC50 (Dipeptidyl peptidase 9): 23 µM
IC50 (Prolyl endopeptidase FAP): > 10 µM
IC50 (Xaa-Pro dipeptidase): > 10 µM
IC50 (Dipeptidyl peptidase 2): > 100 µM

Compound: N[C@@H](CC(=O)N1CCn2c(nnc2C(F)(F)F)C1Cc1cc(C(F)(F)F)cc(C(F)(F)F)c1)Cc1cc(F)c(F)cc1F (stereo in doubt; 48a)
IC50 (Dipeptidyl peptidase 8): > 100 µM
IC50 (Dipeptidyl peptidase 4): 0.587 µM
IC50 (Xaa-Pro aminopeptidase 1): > 10 µM
IC50 (Dipeptidyl peptidase 9): > 100 µM
IC50 (Prolyl endopeptidase FAP): > 10 µM
IC50 (Xaa-Pro dipeptidase): > 10 µM
IC50 (Dipeptidyl peptidase 2): > 100 µM

Compound: N[C@@H](CC(=O)N1CCn2c(nnc2C(F)(F)F)C1Cc1ccccc1C(F)(F)F)Cc1cc(F)c(F)cc1F (stereo in doubt; 44b)
IC50 (Dipeptidyl peptidase 8): 8 µM
IC50 (Dipeptidyl peptidase 4): 0.00031 µM
IC50 (Xaa-Pro aminopeptidase 1): > 10 µM
IC50 (Dipeptidyl peptidase 9): > 100 µM
IC50 (Prolyl endopeptidase FAP): > 10 µM
IC50 (Xaa-Pro dipeptidase): > 10 µM
IC50 (Dipeptidyl peptidase 2): 41 µM
